Laboratory results from ChEMBL document CHEMBL3091325, “New aminopyrimidine derivatives as inhibitors of the TAM family” (Eur J Med Chem, 2013).

Legend:
[1] = target: Tyrosine-protein kinase ABL1 (Homo sapiens) (UniProt P00519); experiment: Inhibition of non-phosphorylated form of Abl1 (unknown origin) at 0.5 uM relative to control
[2] = target: Tyrosine-protein kinase ABL1 (Homo sapiens) (UniProt P00519); experiment: Inhibition of phosphorylated form of Abl1 (unknown origin) at 0.5 uM relative to control
[3] = target: Fibroblast growth factor receptor 3 (Homo sapiens) (UniProt P22607); experiment: Inhibition of FGFR3 (unknown origin) at 0.5 uM relative to control
Chain of Fibroblast growth factor receptor 3 (Homo sapiens) (P22607 23-806 limits assumed): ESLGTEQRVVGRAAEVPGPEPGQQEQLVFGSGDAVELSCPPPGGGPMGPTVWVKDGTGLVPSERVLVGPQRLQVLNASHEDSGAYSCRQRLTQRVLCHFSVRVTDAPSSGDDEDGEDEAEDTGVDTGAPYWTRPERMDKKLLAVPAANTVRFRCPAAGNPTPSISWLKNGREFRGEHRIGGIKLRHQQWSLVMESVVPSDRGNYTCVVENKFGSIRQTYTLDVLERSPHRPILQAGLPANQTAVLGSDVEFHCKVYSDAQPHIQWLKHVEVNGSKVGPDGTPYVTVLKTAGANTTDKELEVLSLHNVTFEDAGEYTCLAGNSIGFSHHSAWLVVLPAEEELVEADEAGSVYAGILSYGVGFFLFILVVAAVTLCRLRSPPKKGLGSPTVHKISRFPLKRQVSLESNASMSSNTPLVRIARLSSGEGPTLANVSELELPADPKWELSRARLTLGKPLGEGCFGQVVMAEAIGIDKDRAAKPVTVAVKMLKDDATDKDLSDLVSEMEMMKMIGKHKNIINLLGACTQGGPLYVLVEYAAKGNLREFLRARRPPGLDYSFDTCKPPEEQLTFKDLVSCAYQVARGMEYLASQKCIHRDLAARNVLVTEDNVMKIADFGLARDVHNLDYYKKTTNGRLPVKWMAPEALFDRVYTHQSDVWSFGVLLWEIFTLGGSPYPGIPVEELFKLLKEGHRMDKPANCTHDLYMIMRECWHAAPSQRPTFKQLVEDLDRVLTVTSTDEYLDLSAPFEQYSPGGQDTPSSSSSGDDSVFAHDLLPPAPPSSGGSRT

[4] = target: Tyrosine-protein kinase ABL1 (Homo sapiens) (UniProt P00519); experiment: Inhibition of phosphorylated form of Abl1 (unknown origin) at 1 uM relative to control
[5] = target: Fibroblast growth factor receptor 3 (Homo sapiens) (UniProt P22607); experiment: Inhibition of FGFR3 (unknown origin) at 75 uM relative to control
[6] = target: Tyrosine-protein kinase receptor UFO (Homo sapiens) (UniProt P30530); experiment: Inhibition of Axl (unknown origin) at 75 uM relative to control
Chain of Tyrosine-protein kinase receptor UFO (Homo sapiens) (P30530 whole entry, the tested form may be a part): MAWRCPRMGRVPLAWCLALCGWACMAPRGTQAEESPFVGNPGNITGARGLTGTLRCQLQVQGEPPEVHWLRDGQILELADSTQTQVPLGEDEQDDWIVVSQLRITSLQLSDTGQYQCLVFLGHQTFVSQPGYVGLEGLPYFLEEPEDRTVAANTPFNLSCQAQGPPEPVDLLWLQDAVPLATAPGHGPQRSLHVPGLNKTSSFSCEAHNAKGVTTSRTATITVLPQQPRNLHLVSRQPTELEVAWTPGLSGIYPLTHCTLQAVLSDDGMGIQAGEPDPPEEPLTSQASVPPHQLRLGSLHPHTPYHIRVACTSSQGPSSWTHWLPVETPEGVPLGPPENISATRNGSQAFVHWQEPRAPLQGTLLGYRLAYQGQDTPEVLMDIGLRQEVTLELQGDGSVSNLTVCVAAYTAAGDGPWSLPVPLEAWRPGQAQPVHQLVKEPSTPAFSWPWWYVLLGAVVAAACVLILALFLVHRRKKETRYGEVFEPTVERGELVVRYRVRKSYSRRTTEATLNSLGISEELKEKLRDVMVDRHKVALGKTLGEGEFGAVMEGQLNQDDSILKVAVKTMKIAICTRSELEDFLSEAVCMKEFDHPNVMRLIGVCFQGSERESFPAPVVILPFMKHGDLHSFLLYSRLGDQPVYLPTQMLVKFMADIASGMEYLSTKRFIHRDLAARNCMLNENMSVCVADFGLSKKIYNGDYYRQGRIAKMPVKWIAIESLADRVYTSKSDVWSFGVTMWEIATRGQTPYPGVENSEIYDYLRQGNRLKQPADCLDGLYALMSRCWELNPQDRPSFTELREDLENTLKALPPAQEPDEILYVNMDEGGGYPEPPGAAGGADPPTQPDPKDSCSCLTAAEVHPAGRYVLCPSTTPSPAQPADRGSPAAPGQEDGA

[7] = target: Tyrosine-protein kinase receptor UFO (Homo sapiens) (UniProt P30530); experiment: Inhibition of Axl (unknown origin) at 0.5 uM relative to control
[8] = target: T1, Tyrosine-protein kinase receptor TYRO3 (Homo sapiens) (UniProt Q06418); experiment: Inhibition of recombinant human Tyro3 kinase domain using poly (Glu, Ala, Tyr) as substrate at 0.5 uM after 1.5 hrs by ELISA relative to control
T1 sequence (whole entry): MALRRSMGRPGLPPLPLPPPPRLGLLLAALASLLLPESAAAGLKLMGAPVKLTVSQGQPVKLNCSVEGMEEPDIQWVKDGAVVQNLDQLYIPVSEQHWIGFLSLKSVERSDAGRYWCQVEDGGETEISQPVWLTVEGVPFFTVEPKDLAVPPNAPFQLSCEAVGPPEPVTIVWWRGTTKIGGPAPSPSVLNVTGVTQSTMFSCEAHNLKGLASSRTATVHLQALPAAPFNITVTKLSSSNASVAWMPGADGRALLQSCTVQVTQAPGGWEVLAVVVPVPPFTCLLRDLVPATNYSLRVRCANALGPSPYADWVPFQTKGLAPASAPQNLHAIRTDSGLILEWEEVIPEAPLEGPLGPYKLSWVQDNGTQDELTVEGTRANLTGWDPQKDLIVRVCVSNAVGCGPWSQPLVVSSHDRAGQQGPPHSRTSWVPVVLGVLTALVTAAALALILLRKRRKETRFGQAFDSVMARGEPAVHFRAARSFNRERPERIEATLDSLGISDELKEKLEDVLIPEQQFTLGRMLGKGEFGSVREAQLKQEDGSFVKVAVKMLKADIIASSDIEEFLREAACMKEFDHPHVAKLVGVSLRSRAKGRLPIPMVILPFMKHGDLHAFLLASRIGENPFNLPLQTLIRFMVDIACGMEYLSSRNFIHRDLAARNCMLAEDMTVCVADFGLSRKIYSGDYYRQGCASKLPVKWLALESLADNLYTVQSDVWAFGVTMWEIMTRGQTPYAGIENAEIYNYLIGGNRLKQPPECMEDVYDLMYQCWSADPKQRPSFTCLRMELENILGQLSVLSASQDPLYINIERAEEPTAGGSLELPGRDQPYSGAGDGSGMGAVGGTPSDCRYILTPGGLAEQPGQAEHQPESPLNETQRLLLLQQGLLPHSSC

[9] = target: T1, Tyrosine-protein kinase receptor TYRO3 (Homo sapiens); experiment: Inhibition of recombinant human Tyro3 kinase domain using poly (Glu, Ala, Tyr) as substrate at 75 uM after 1.5 hrs by ELISA relative to control
[10] = target: Tyrosine-protein kinase ABL1 (Homo sapiens) (UniProt P00519); experiment: Inhibition of non-phosphorylated form of Abl1 (unknown origin) at 1 uM relative to control
[11] = target: Tyrosine-protein kinase ABL1 (Homo sapiens) (UniProt P00519); experiment: Inhibition of non-phosphorylated form of Abl1 (unknown origin) at 75 uM relative to control
[12] = target: T2, Tyrosine-protein kinase Mer (Homo sapiens) (UniProt Q12866); experiment: Inhibition of Mer (unknown origin) at 1 uM relative to control
T2 sequence (whole entry): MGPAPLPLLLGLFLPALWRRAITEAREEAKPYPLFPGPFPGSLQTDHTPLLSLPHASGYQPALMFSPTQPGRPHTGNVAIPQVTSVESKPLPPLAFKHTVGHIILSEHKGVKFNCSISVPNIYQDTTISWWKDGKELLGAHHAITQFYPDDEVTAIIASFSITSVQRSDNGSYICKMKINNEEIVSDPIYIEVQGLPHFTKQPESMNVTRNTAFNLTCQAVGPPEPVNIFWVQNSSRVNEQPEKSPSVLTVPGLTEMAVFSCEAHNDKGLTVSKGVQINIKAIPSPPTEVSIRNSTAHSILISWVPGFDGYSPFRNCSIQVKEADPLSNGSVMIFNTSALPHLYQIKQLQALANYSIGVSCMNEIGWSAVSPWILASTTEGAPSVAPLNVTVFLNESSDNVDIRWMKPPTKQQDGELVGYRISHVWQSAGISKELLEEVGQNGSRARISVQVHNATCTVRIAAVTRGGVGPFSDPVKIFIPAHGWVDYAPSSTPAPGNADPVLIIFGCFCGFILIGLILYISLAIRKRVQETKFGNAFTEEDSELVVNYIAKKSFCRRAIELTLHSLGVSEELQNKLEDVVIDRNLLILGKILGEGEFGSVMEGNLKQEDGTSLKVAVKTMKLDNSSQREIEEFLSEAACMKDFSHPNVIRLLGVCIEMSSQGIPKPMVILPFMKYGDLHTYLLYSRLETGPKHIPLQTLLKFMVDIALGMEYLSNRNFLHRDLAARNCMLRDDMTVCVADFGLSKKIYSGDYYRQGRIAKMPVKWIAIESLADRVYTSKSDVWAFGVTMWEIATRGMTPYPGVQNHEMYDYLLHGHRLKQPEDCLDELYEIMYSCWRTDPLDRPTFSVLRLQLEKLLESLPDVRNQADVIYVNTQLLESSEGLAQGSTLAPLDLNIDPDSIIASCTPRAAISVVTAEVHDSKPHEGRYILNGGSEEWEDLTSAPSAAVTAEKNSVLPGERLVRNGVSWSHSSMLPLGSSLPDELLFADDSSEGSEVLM

[13] = target: Hepatocyte growth factor receptor (Homo sapiens) (UniProt P08581); experiment: Inhibition of Met (unknown origin) at 1 uM relative to control
Chain of Hepatocyte growth factor receptor (Homo sapiens) (P08581 whole entry, the tested form may be a part): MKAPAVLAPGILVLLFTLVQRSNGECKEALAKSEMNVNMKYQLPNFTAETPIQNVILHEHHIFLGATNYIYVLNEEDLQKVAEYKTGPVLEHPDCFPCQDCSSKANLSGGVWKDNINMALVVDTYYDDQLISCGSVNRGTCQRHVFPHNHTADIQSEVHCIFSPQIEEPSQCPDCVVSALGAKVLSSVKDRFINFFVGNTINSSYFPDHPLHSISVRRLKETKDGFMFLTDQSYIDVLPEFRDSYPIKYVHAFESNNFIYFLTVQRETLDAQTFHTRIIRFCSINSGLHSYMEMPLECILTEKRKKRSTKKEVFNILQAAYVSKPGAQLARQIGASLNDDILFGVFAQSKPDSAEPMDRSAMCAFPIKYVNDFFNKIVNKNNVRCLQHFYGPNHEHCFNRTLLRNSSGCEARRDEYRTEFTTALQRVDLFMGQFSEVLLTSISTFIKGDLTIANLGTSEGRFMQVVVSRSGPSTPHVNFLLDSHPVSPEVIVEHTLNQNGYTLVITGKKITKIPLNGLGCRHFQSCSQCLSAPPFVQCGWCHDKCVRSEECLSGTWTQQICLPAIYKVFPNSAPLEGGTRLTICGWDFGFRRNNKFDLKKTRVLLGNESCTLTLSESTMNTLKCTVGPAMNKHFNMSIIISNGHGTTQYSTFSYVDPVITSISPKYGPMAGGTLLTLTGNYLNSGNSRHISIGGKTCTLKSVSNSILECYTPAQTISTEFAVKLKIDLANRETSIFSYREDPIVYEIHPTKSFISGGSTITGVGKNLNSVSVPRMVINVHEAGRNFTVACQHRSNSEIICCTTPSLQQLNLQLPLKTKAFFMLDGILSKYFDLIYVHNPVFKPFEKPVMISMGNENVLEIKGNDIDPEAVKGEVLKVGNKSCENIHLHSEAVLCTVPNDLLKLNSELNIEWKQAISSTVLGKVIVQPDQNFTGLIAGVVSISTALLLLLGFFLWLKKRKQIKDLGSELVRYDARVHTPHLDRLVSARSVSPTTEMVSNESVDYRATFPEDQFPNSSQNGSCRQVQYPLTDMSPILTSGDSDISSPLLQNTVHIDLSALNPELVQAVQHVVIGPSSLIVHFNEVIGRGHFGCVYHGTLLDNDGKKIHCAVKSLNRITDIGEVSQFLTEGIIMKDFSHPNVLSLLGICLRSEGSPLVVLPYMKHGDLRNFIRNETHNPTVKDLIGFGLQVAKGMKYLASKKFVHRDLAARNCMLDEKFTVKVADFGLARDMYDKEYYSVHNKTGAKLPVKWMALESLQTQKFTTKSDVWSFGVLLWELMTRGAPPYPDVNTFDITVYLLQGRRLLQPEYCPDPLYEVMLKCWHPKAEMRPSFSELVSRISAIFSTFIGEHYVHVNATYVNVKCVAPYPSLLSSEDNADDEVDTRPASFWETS

[14] = target: T1, Tyrosine-protein kinase receptor TYRO3 (Homo sapiens); experiment: Inhibition of recombinant human Tyro3 kinase domain using poly (Glu, Ala, Tyr) as substrate at 1 uM after 1.5 hrs by ELISA relative to control
[15] = target: Hepatocyte growth factor receptor (Homo sapiens) (UniProt P08581); experiment: Inhibition of Met (unknown origin) at 0.5 uM relative to control
[16] = target: Fibroblast growth factor receptor 3 (Homo sapiens) (UniProt P22607); experiment: Inhibition of FGFR3 (unknown origin) at 1 uM relative to control
[17] = target: T2, Tyrosine-protein kinase Mer (Homo sapiens); experiment: Inhibition of Mer (unknown origin) at 75 uM relative to control
[18] = target: Tyrosine-protein kinase ABL1 (Homo sapiens) (UniProt P00519); experiment: Inhibition of phosphorylated form of Abl1 (unknown origin) at 75 uM relative to control
[19] = target: Tyrosine-protein kinase receptor UFO (Homo sapiens) (UniProt P30530); experiment: Inhibition of Axl (unknown origin) at 1 uM relative to control
[20] = target: T2, Tyrosine-protein kinase Mer (Homo sapiens); experiment: Inhibition of Mer (unknown origin) at 0.5 uM relative to control
[21] = target: Hepatocyte growth factor receptor (Homo sapiens) (UniProt P08581); experiment: Inhibition of Met (unknown origin) at 75 uM relative to control

Chain of Tyrosine-protein kinase ABL1 (Homo sapiens) (P00519 whole entry): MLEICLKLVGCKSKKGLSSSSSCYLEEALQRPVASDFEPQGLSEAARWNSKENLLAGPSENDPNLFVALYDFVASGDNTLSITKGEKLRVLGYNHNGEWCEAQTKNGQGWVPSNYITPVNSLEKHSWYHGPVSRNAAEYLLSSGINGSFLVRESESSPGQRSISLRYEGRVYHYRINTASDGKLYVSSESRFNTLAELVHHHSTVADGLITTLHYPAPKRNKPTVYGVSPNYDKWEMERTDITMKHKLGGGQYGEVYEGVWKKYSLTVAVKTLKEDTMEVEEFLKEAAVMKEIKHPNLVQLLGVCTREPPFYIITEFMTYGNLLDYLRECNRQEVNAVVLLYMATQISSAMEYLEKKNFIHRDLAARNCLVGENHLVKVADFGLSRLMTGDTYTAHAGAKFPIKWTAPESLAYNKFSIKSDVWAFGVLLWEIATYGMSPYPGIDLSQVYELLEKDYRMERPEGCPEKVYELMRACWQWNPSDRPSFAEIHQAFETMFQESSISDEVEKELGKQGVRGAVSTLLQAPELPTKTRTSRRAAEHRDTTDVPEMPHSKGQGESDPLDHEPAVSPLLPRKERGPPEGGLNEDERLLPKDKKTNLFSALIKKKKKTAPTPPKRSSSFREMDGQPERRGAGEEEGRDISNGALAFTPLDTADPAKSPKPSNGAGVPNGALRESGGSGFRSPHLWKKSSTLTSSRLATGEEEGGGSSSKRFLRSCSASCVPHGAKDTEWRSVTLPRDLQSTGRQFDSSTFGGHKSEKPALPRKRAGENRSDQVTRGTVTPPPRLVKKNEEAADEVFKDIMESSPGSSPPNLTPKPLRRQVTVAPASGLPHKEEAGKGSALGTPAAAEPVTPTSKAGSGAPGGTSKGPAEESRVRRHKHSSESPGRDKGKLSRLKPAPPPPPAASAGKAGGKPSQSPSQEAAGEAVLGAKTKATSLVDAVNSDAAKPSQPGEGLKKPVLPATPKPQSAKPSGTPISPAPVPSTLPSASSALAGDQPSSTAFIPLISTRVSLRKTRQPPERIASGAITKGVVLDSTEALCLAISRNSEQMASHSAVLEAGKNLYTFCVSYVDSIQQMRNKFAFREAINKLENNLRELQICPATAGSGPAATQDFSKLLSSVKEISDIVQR

inhibition [1] [%]	inhibition [2] [%]	inhibition [3] [%]	inhibition [4] [%]	inhibition [5] [%]	inhibition [6] [%]	inhibition [7] [%]	inhibition [8] [%]	inhibition [9] [%]	inhibition [10] [%]	inhibition [11] [%]	inhibition [12] [%]	inhibition [13] [%]	inhibition [14] [%]	inhibition [15] [%]	inhibition [16] [%]	inhibition [17] [%]	inhibition [18] [%]	inhibition [19] [%]	inhibition [20] [%]	Structure (SMILES)	other results
14	0	0	0	3	100	85	41	81	31	94	82	98	75	95	0	100	26	95	73	Nc1cc(Oc2ccc(NC(=O)c3cccn(-c4ccc(F)cc4)c3=O)cc2)ncn1	inhibition [21]: 97%
23	0	0	0	16	100	97	77	100	41	94	93	98	94	98	0	83	39	100	89	Nc1cc(Oc2ccc(NC(=O)c3cccn(-c4ccc(F)cc4)c3=O)cc2F)ncn1	inhibition [21]: 98%
